{"source": "paper PMC8799360", "about": "“In Vitro and In Vivo Effect of Xylopic Acid on Cytochrome P450 Enzymes” (Advances in Pharmacological and Pharmaceutical Sciences, 2022)", "test_system": "T1, CYP 3A4", "T1 construct": "liver microsomes from phenobarbitone-pretreated male rats", "experiment": "fluorometric benzyloxyresorufin (BROD) assay in rat liver microsomes", "assay_type": "biochemical", "data": [{"smiles": "CC(=O)N1CCN(c2ccc(OC[C@H]3CO[C@](Cn4ccnc4)(c4ccc(Cl)cc4Cl)O3)cc2)CC1", "note": "(racemic) [ketoconazole]", "values": [{"measurement": "IC50", "value": "[…]"}]}, {"smiles": "C=C1[C@@H]2CC[C@H]3[C@]4(C)CCC[C@@](C)(C(=O)O)[C@H]4CC[C@]3(C2)[C@@H]1OC(C)=O", "note": "[XA, xylopic acid]", "values": [{"measurement": "IC50", "value": "1300 ± 10", "unit": "nM"}]}]}
